Assay [1] has as its target AuroraB (h) (Homo sapiens, UniProt Q96GD4). Description: Aurora-B human kinase inhibition, SPA. It counts as biochemical. As to conditions: read-out: AuroraB pIC50 (converted). On the procedure: (§1) The in vitro inhibition of a panel of kinases was assessed using either the scintillation proximity assay (SPA) as described by Cook, N. D. et al., Advances in Experimental Medicine and Biology (1991), 36; p. 525-528.
(§2) In the SPA technology the activity of the kinase of interest is measured using an appropriate biotinylated substrate that is incubated with the aforementioned kinase protein in the presence of (^33P) radiolabeled ATP. (^33P) Phosphorylation of the substrate is subsequently measured through binding of the phosphorylated substrate to streptavidine coated beads that are based on the scintillant poly(vinyl toluene) (PVT-Beads). The scintillation intensity is detected by imaging on Leadseeker.
(§3) All kinases are pre-diluted to a 10× working concentration prior to addition into the assay. The composition of the dilution buffer for each kinase is detailed below.
In a final reaction volume of 30 μl, AuroraB (h) (0.5 μg/ml) is incubated with 60 mM Hepes pH 7.5, 3 mM MgCl2, 3 mM MnCl2, 3 μM Na3VO4, 0.05 mg/ml PEG, 2 mM DTT, 3 μM Biotin-[…]-OH, 0.5 μM ATP and 2.2 nM [γ-^33P-ATP] (6.8 μCi/ml). After incubation of 60 minutes at room temperature, the reaction is stopped by addition of 40 μL of stop solution containing 8.7 mM EDTA, BSA 0.17%, 0.17% Triton X-100, 5 mg/ml SPA beads (GE-healthcare). The plate is centrifuged and read for Scintillation imaging on Leadseeker.

Assay [2] deals with A2780. The assay can be described thus: Cellular proliferation assay (Alamar blue), A2780. It counts as cell-based. Particulars: Homo sapiens, 10% FCS, 72 hours with compound, Alamar blue 24 h, read-out: A2780 (cellular proliferation assay, Table 4) (converted). On the procedure:
(§4) […] functional properties of these compounds were tested in cellular proliferation assays on a panel of different cell lines in the presence of 10% FCS serum (37° C. and 5% (v/v) CO2). In a first step these cells were seeded and incubated for 24 hours in the absence of compound. In the second step the cells were incubated for 72 hours with the compounds to be tested for 72 hours. The viable cell number was finally assessed in a standard Alamar blue cell viability assay.
(§5) The viable cell number was assessed by incubation for either 4 h (HCT-116, H1299) 6 h (U87-MG) or 24 h (A2780, MDA-MB-231) with Alamar blue (Resazurin 9 μg/ml, K-Ferrocyanide 90 μM, K-Ferricyanide 90 μM) and the converted fluorescent product was quantified on a fluorescent plate reader (544 nm/590 nm). Effect of the compounds is calculated as of on control cells.

For assay [3], the target named is PLK2 (h) (Homo sapiens, UniProt Q9NYY3). Description: PLK2 human kinase inhibition, SPA. It counts as biochemical. As to conditions: read-out: PLK2 pIC50 (converted). On the procedure:
as §1, §2, §3
In a final reaction volume of 30 μl, PLK2 (h) (30 μg/ml) is incubated with 50 mM Hepes pH 8.0, 2 mM MnCl2, 1 mM DTT, 2 μM of peptide Biotin-Tds linker-[…], 0.1 μM ATP and 2 nM [γ-^33P-ATP] (6.0 μCi/ml). After incubation of 20 minutes at room temperature, the reaction is stopped by addition of 40 μL of stop solution containing 8.7 mM EDTA, BSA 0.17%, 0.17% Triton X-100, 25 mg/ml SPA beads (GE-healthcare). The plate is centrifuged and read for Scintillation imaging on Leadseeker.

In assay [4] the target is PLK1 T210D (h) (Homo sapiens, UniProt P53350, T210D). Description: PLK1 human kinase inhibition, SPA. It counts as biochemical. As to conditions: read-out: PLK1 pIC50 (converted). On the procedure: as §1, §2, §3
In a final reaction volume of 30 μl, PLK1 T210D (h) (0.125 ng/ml) is incubated with 50 mM Hepes pH 8.0, 2 mM MnCl2, 1 mM DTT, 2 μM of peptide Biotin-Tds linker-[…], 0.1 μM ATP and 2 nM [γ-^33P-ATP] (6.0 μCi/ml). After incubation of 40 minutes at room temperature, the reaction is stopped by addition of 40 μL of stop solution containing 8.7 mM EDTA, BSA 0.17%, 0.17% Triton X-100, 25 mg/ml SPA beads (GE-healthcare). The plate is centrifuged and read for Scintillation imaging on Leadseeker.

The target of assay [5] is CDK1/CyclinB (h) (Homo sapiens, UniProt P06493). Description: CDK1/CyclinB human kinase inhibition, Invitrogen's FRET assay (Z'lyte). It counts as biochemical. Particulars: read-out: CDK1 pIC50 (converted). On the procedure:
as §1, §3
In a final reaction volume of 10 μl, CDK1/CyclinB (h) (0.2 μg/ml) is incubated with 50 mM Hepes pH 7.5, 10 mM MgCl2, 1 mM EGTA, 0.01% Brij-35, 2 μM Z'lyte Ser/Thr peptide 12 and 10 μM ATP (Invitrogen's FRET assay). After incubation of 60 minutes at room temperature, the reaction is stopped by addition of 5 μL development reagent containing protease mix. After 60 minutes room temperature the development reaction is stopped by adding 5 μl stop solution. The plate is then read in fluorescence plate reader with excitation: 390 nm and dual emission: 460 and 538 nm. Emission ratio is determined to the formula=Emission signal intensity at 460 nm/Emission signal intensity at 538 nm.

Assay [6] relates to HCT-116. Description: Cellular proliferation assay (Alamar blue), HCT-116. It counts as cell-based. As to conditions: Homo sapiens, 10% FCS, 72 hours with compound, Alamar blue 4 h. On the procedure: as §4, §5
The test system of assay [7] is H1299. Description: Cellular proliferation assay (Alamar blue), H1299. It counts as cell-based. Particulars: Homo sapiens, NCI-H1299; 10% FCS; 72 hours with compound; Alamar blue 4 h. On the procedure:
as §4, §5

The target in assay [8] is GSK3β (h) (Homo sapiens, UniProt P49841). Description: GSK-3β human kinase inhibition, SPA. It counts as biochemical. As to conditions: read-out: GSK3b pIC50 (converted). On the procedure: as §1, §2, §3
In a final reaction volume of 30 μl, GSK3β (h) (1 μg/ml) is incubated with 25 mM Tris pH 7.4, 10 mM MgCl2, 1 mM DTT, 1 μM peptide Biotin-[…]-OH, 1 μM ATP and 2 nM [γ-^33P-ATP] (6.0 μCi/ml). After incubation of 60 minutes at room temperature, the reaction is stopped by addition of 40 μL of stop solution containing 8.7 mM EDTA, BSA 0.17%, 0.17% Triton X-100, 6.25 mg/ml SPA beads (GE-healthcare). The plate is centrifuged and read for Scintillation imaging on Leadseeker.

For assay [9], the target named is PLK4 (h) (Homo sapiens, UniProt O00444). Description: PLK-4 human kinase inhibition, scintillation proximity assay (SPA). It counts as biochemical. As to conditions: read-out: PLK4 pIC50 (converted). On the procedure:
as §2, §3
(6.0 μCi/ml). After incubation of 60 minutes at room temperature, the reaction is stopped by addition of 40 μL of stop solution containing 8.7 mM EDTA, BSA 0.17%, 0.17% Triton X-100, 1.7 mg/ml SPA beads (GE-healthcare). The plate is centrifuged and read for Scintillation imaging on Leadseeker.

The target of assay [10] is PLK3 (h) (Homo sapiens, UniProt Q9H4B4). The assay can be described thus: PLK3 human kinase inhibition, SPA. It counts as biochemical. As to conditions: read-out: PLK3 pIC50 (converted). On the procedure:
as §1, §2, §3
In a final reaction volume of 30 μl, PLK3 (h) (30 μg/ml) is incubated with 50 mM Hepes pH 8.0, 2 mM MnCl2, 1 mM DTT, 2 μM of peptide Biotin-Tds linker-[…], 0.1 μM ATP and 2 nM [γ-^33P-ATP] (6.0 μCi/ml). After incubation of 20 minutes at room temperature, the reaction is stopped by addition of 40 μL of stop solution containing 8.7 mM EDTA, BSA 0.17%, 0.17% Triton X-100, 25 mg/ml SPA beads (GE-healthcare). The plate is centrifuged and read for Scintillation imaging on Leadseeker.

The test system of assay [11] is U87-MG. Description: Cellular proliferation assay (Alamar blue), U87-MG. As to conditions: Homo sapiens, U-87 MG; 10% FCS; 72 hours with compound; Alamar blue 6 h; read-out: U87-MG (cellular proliferation assay, Table 4) (converted). It counts as cell-based. On the procedure:
as §4, §5

Assay [12] deals with MDA-MB-231. Description: Cellular proliferation assay (Alamar blue), MDA-MB-231. It counts as cell-based. As to conditions: Homo sapiens, 10% FCS, 72 hours with compound, Alamar blue 24 h, read-out: MDA/MB231 (cellular proliferation assay, Table 4) (converted). On the procedure: as §4, §5

This note sets out measurements from patent US8609836B2, “4-aryl-2-anilino-pyrimidines” (Janssen Pharmaceutica NV, priority 2008, dated 2013).

Molecules are shown by their SMILES. A value given as a limit tells only on which side of the number the result lay.

Chain of GSK3β (h) (P49841 whole entry): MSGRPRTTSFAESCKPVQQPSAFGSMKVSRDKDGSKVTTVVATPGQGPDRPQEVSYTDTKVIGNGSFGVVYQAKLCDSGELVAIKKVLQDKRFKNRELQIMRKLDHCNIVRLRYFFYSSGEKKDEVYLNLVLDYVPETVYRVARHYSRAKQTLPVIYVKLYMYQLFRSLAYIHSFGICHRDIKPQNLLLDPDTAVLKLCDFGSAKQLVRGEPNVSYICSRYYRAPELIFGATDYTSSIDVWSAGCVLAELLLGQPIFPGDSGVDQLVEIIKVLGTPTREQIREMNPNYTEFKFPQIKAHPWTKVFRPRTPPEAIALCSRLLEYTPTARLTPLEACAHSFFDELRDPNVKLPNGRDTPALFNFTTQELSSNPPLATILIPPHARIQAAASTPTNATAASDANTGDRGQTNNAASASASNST
Chain of AuroraB (h) (Q96GD4 whole entry): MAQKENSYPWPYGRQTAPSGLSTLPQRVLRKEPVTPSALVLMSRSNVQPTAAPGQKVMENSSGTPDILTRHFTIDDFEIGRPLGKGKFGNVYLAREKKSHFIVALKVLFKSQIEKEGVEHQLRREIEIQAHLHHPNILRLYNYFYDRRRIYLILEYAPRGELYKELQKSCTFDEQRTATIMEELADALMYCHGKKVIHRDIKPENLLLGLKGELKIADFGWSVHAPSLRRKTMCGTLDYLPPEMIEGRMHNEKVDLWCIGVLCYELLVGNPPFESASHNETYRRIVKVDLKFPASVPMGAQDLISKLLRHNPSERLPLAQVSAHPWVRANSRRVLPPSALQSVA
Chain of PLK1 T210D (h) (P53350 whole entry T210D): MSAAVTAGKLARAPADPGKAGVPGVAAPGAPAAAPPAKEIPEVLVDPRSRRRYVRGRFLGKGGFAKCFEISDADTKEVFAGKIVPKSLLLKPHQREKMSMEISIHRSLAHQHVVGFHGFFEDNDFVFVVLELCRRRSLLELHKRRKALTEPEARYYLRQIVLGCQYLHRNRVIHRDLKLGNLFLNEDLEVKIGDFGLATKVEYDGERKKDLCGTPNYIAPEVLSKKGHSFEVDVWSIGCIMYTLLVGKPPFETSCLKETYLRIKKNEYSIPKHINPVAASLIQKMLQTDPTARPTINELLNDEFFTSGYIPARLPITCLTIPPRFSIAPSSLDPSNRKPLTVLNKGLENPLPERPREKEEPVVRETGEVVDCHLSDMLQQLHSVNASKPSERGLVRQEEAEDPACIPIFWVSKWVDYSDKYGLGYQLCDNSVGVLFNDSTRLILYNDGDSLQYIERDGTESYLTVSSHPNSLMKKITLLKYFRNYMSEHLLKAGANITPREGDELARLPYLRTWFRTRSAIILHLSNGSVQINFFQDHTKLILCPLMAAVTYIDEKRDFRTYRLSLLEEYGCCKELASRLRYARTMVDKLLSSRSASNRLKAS
Chain of PLK4 (h) (O00444 whole entry): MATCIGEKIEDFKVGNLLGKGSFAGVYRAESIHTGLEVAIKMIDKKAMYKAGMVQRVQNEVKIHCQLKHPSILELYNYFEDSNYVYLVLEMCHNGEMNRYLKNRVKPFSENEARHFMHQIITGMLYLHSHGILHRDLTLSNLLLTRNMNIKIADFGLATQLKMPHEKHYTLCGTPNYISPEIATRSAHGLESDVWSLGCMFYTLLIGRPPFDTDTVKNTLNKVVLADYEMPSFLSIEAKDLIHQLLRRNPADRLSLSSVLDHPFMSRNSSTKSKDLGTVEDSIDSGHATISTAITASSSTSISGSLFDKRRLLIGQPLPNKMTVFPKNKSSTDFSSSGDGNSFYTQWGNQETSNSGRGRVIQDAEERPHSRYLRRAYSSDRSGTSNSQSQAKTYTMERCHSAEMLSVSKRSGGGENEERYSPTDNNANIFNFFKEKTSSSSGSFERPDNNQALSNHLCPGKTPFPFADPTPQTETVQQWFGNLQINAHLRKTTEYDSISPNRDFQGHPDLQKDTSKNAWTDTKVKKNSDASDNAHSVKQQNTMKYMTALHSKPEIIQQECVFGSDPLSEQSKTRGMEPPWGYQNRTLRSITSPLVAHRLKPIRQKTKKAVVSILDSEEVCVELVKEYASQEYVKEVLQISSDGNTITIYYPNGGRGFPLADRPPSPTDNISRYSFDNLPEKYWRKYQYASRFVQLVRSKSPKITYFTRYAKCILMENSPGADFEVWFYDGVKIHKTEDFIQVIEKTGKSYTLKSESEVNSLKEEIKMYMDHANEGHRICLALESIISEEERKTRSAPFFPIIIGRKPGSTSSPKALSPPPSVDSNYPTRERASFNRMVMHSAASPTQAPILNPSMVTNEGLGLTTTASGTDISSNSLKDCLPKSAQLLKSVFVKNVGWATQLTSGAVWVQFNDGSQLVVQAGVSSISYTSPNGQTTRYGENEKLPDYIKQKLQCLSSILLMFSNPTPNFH
Chain of PLK3 (h) (Q9H4B4 whole entry): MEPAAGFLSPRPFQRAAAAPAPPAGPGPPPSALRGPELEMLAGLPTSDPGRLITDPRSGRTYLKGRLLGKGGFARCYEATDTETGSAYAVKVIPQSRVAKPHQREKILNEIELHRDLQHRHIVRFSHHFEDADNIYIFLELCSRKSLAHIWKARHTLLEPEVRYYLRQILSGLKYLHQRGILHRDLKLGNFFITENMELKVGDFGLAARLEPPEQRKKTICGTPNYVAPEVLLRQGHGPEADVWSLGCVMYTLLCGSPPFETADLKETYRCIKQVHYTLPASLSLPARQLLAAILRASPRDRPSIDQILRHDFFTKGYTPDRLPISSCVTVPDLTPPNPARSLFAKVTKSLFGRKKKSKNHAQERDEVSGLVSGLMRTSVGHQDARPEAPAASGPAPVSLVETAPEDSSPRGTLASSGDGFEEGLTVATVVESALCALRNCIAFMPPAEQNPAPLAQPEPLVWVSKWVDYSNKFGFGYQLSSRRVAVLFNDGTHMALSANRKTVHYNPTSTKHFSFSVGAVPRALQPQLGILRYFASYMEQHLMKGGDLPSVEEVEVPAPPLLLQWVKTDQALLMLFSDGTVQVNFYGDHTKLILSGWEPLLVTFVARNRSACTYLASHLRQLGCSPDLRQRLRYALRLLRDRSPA
Chain of PLK2 (h) (Q9NYY3 whole entry): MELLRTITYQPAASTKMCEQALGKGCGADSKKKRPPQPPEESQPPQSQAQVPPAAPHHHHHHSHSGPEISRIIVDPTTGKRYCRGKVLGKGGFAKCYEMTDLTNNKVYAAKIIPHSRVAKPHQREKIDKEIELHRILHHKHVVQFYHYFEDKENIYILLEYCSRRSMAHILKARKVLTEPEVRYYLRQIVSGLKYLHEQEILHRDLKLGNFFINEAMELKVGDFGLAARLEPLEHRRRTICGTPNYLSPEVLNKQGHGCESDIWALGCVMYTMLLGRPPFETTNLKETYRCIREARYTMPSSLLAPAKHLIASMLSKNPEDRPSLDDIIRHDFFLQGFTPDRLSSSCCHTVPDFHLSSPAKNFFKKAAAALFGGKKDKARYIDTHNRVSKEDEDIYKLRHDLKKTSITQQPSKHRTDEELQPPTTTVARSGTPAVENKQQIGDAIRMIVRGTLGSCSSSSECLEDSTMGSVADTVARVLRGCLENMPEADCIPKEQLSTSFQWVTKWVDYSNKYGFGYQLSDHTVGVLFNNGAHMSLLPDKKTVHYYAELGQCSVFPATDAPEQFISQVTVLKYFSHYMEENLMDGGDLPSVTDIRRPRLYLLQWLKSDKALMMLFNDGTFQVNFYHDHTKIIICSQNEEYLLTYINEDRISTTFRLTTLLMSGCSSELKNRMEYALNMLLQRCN
Chain of CDK1/CyclinB (h) (P06493 whole entry): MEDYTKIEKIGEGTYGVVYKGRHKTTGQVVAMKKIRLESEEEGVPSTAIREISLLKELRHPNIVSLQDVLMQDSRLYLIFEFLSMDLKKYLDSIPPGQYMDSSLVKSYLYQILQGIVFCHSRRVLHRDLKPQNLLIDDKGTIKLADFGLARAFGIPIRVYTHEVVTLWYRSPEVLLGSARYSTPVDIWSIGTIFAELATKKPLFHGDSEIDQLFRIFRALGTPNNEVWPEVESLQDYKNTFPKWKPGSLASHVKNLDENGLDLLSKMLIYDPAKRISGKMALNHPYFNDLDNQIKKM
Chain of CDK1/CyclinB (h) (P14635 whole entry partner): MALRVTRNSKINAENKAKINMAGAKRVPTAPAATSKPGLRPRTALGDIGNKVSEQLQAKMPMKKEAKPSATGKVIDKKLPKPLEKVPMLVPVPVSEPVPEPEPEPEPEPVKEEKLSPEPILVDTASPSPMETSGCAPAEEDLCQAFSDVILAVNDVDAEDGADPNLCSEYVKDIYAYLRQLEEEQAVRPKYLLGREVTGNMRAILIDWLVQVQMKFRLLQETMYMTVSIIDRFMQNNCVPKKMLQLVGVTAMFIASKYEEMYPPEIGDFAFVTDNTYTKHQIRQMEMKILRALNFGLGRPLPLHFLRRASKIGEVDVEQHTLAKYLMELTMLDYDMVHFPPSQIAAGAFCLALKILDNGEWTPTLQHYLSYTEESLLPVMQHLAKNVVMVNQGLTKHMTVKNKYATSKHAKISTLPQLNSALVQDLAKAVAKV

With `COc1ccc2cc1CN(C)CCNC(=O)[C@H](C)NCc1cc(ccc1N1CCOCC1)Nc1nccc-2n1` [Compound 116], the IC50 was greater than 10 µM in assay [1]; greater than 10 µM in assay [2]; greater than 10 µM in assay [3]; greater than 10 µM in assay [4]; greater than 10 µM in [5]; 4.07 µM in [6]. For the same compound, the IC50 is greater than 10 µM in assay [7]; greater than 10 µM in [8]; 1.48 µM in assay [9]; greater than 10 µM in assay [10]; 5.75 µM in assay [11]; greater than 10 µM in [12].
With `CC(C)Nc1cc2cc(c1)Nc1nccc(n1)-c1ccc(cc1)CN(C)CCNC(=O)CN1CCN(CC1)C2` [Compound 128], the IC50 is greater than 10 µM in assay [1]; greater than 10 µM in [2]; greater than 10 µM in assay [3]; greater than 10 µM in [4]; 1.38 µM in [5]; greater than 10 µM in assay [6]. The IC50 was greater than 10 µM in [7]; 1.95 µM in assay [8]; 1.02 µM in assay [9]; greater than 10 µM in assay [10]; 7.94 µM in assay [11]; greater than 10 µM in [12].
In the case of `O=C1NCc2cccc(c2)-c2ccnc(n2)Nc2cc(ccc2Cl)CN2CCC1CC2` [Compound 123], the IC50 in [1] is greater than 10 µM; in assay [2], greater than 10 µM; in assay [3] it was greater than 10 µM; in assay [4], greater than 10 µM; in assay [5] it was 1.91 µM; in assay [6], greater than 10 µM. Moreover, the IC50 in assay [7] is greater than 10 µM; in assay [8], 2.75 µM; in assay [9], 8.13 µM; in [10] it was greater than 10 µM; in [11], greater than 10 µM; in assay [12] it was greater than 10 µM.
As for `COc1cc2cc(c1OC)CNC(=O)[C@H](CO)NCc1cccc(c1)-c1ccnc(n1)N2` [Compound 8], the IC50 was 4.68 µM in [1]; greater than 10 µM in assay [2]; 3.63 µM in assay [3]; greater than 10 µM in assay [4]; greater than 10 µM in assay [5]; 7.94 µM in assay [6]. The IC50 in assay [7] is greater than 10 µM; in [8], 0.309 µM; in assay [9], 0.363 µM; in assay [10], 4.68 µM; in assay [11], greater than 10 µM; in assay [12] it was greater than 10 µM.
As for `O=C1CN2CCN(CC2)Cc2cc(ccc2N2CCOCC2)Nc2nccc(n2)-c2ccc(cc2)CNCCCN1` [Compound 139], the IC50 is greater than 10 µM in assay [1]; 7.41 µM in assay [2]; greater than 10 µM in assay [3]; greater than 10 µM in assay [4]; greater than 10 µM in assay [5]; 7.41 µM in assay [6]. For the same compound, the IC50 was greater than 10 µM in assay [7]; greater than 10 µM in assay [8]; 2.19 µM in assay [9]; greater than 10 µM in [10]; 2.09 µM in assay [11]; greater than 10 µM in assay [12].
On to `CN1CCNC(=O)[C@H](CO)NCc2cc(cc(N3CCOCC3)c2)Nc2nccc(n2)-c2ccc(cc2)C1` [Compound 108], for which the IC50 in [1] is 6.03 µM; in assay [2], greater than 10 µM; in assay [3], greater than 3.02 µM; in assay [4], greater than 10 µM; in assay [5], greater than 10 µM; in assay [6], 8.32 µM. The IC50 in assay [7] is greater than 10 µM; in assay [8], 6.61 µM; in assay [9], 0.603 µM; in [10], greater than 10 µM; in [11] it was 8.91 µM; in [12], greater than 10 µM.
With `COc1ccc2cc1CN1CCC(CC1)C(=O)N(C)CCCN(C)c1ccc(cn1)-c1ccnc(n1)N2` [Compound 85], the IC50 in assay [1] was greater than 10 µM; in assay [2] it was greater than 10 µM; in [3], greater than 10 µM; in assay [4] it was greater than 10 µM; in [5], greater than 10 µM; in assay [6], 4.79 µM. Further, the IC50 in assay [7] is 5.89 µM; in [8] it was 2.95 µM; in [9], 5.89 µM; in assay [10] it was greater than 10 µM; in [11], greater than 10 µM; in assay [12] it was greater than 10 µM.
In the case of `O=C1NCCCOc2cccc(c2)-c2ccnc(n2)Nc2ccc(N3CCOCC3)c(c2)CN2CCC1CC2` [Compound 93], the IC50 is greater than 10 µM in assay [1]; 7.24 µM in [2]; greater than 10 µM in [3]; greater than 10 µM in [4]; greater than 10 µM in assay [5]; 3.63 µM in assay [6]. The IC50 in [7] was greater than 10 µM; in [8], 4.68 µM; in [9], 1.12 µM; in assay [10], greater than 10 µM; in assay [11], greater than 10 µM; in assay [12], 10 µM.
